Values quoted from earlier work in patent publication US20100029676A1 (priority 2005, published 2010).

System: imatinib-resistant BCR-ABL mutants
Settings: number of mutants active / tested; Weisberg et al.

For `Cc1cn(-c2cc(NC(=O)c3ccc(C)c(Nc4nccc(-c5cccnc5)n4)c3)cc(C(F)(F)F)c2)cn1` [AMN107], which “imatinib-resistant BCR-ABL mutants against which significantly active” value is on record?
The value was 32/33.
